{
  "source": "patent US3984548A",
  "about": "“Substituted pyrido[1,2,3,-de]-1,4-benzoxazines as bactericides” (Riker Laboratories, Inc., priority 1974, dated 1976)",
  "type_in_all_cases": "cell-based",
  "parameters_in_all_cases": "key: +: active; -: inactive",
  "conditions_in_all_cases": "agar plates, 1 to 100 milligrams/liter",
  "key": {"[1]": {"system": "Streptococcus Sp", "assay": "standard plate dilution method, Streptococcus sp.", "method": "(§1) The culture medium employed permits susceptibility testing of fastidious microorganisms towards antibiotics, sulfonamides and other chemotherapeutic agents. Tryptone soy agar (oxoid) of the following composition is the culture medium. In the test procedure, the amount of a compound required to give complete inhibition or no inhibition of the microbial growth on the agar plates was determined. The compound selected for evaluation is added to the agar medium to give concentrations of one, ten and one hundred milligrams per liter. A series of plates with these concentrations is prepared. Plates containing agar alone are included as controls. Ten percent horse serum is added to one series of such plates. Aliquots of broth culture of each of nine species of microorganisms are innoculated onto the agar plates containing the various compound concentrations and onto the control plates. The plates are incubated at 37° C. in a 10 percent carbon dioxide atmosphere for 18 to 25 hours. The microbial growth on each plate is read visually, and minimal inhibitory concentrations are recorded."}, "[2]": {"system": "Staphylococcus aureus", "assay": "standard plate dilution method, Staphylococcus aureus", "method": "as §1"}, "[3]": {"system": "Bacillus Subtilus", "assay": "standard plate dilution method, Bacillus subtilus", "method": "as §1"}, "[4]": {"system": "Escherichia coli", "assay": "standard plate dilution method, Escherichia coli", "method": "as §1"}, "[5]": {"system": "Pseudmonas aeruginosa", "assay": "standard plate dilution method, Pseudomonas aeruginosa", "method": "as §1"}, "[6]": {"system": "Mima polymorpha", "assay": "standard plate dilution method, Mima polymorpha", "method": "as §1"}, "[7]": {"system": "Herellea vaginicola", "assay": "standard plate dilution method, Herellea vaginicola", "method": "as §1"}},
  "data": [
    {"smiles": "Cc1ccc2c(=O)c(C(=O)O)cn3c2c1OCC3C", "note": "(stereo not drawn) [Example 39 (acid)]", "values": [
      {"measurement": "Microorganism SS (growth inhibition)", "setting": "[1]", "value": "+"},
      {"measurement": "Microorganism SA (growth inhibition)", "setting": "[2]", "value": "-"},
      {"measurement": "Microorganism BS (growth inhibition)", "setting": "[3]", "value": "+"},
      {"measurement": "Microorganism EC (growth inhibition)", "setting": "[4]", "value": "+"},
      {"measurement": "Microorganism PA (growth inhibition)", "setting": "[5]", "value": "+"},
      {"measurement": "Microorganism MP (growth inhibition)", "setting": "[6]", "value": "+"},
      {"measurement": "Microorganism HV (growth inhibition)", "setting": "[7]", "value": "+"}
    ]},
    {"smiles": "CCOC(=O)c1cn2c3c(c(C)ccc3c1=O)OCC2C", "note": "(stereo not drawn) [Example 39 (ester)]", "values": [
      {"measurement": "Microorganism SS (growth inhibition)", "setting": "[1]", "value": "+"},
      {"measurement": "Microorganism SA (growth inhibition)", "setting": "[2]", "value": "-"},
      {"measurement": "Microorganism BS (growth inhibition)", "setting": "[3]", "value": "-"},
      {"measurement": "Microorganism EC (growth inhibition)", "setting": "[4]", "value": "+"},
      {"measurement": "Microorganism PA (growth inhibition)", "setting": "[5]", "value": "+"},
      {"measurement": "Microorganism MP (growth inhibition)", "setting": "[6]", "value": "-"},
      {"measurement": "Microorganism HV (growth inhibition)", "setting": "[7]", "value": "-"}
    ]},
    {"smiles": "Cc1cc2c3c(c1C)c(=O)c(C(=O)O)cn3C(C)CO2", "note": "(stereo not drawn) [Example 40 (acid)]", "values": [
      {"measurement": "Microorganism SS (growth inhibition)", "setting": "[1]", "value": "+"},
      {"measurement": "Microorganism SA (growth inhibition)", "setting": "[2]", "value": "+"},
      {"measurement": "Microorganism BS (growth inhibition)", "setting": "[3]", "value": "+"},
      {"measurement": "Microorganism EC (growth inhibition)", "setting": "[4]", "value": "+"},
      {"measurement": "Microorganism PA (growth inhibition)", "setting": "[5]", "value": "+"},
      {"measurement": "Microorganism MP (growth inhibition)", "setting": "[6]", "value": "+"},
      {"measurement": "Microorganism HV (growth inhibition)", "setting": "[7]", "value": "+"}
    ]},
    {"smiles": "Cc1cc(Cl)c2c(=O)c(C(=O)O)cn3c2c1OCC3C", "note": "(stereo not drawn) [Example 41 (acid)]", "values": [
      {"measurement": "Microorganism SS (growth inhibition)", "setting": "[1]", "value": "-"},
      {"measurement": "Microorganism SA (growth inhibition)", "setting": "[2]", "value": "+"},
      {"measurement": "Microorganism BS (growth inhibition)", "setting": "[3]", "value": "+"},
      {"measurement": "Microorganism EC (growth inhibition)", "setting": "[4]", "value": "+"},
      {"measurement": "Microorganism PA (growth inhibition)", "setting": "[5]", "value": "-"},
      {"measurement": "Microorganism MP (growth inhibition)", "setting": "[6]", "value": "-"},
      {"measurement": "Microorganism HV (growth inhibition)", "setting": "[7]", "value": "+"}
    ]},
    {"smiles": "CCOC(=O)c1cn2c3c(c(C)cc(Cl)c3c1=O)OCC2C", "note": "(stereo not drawn) [Example 41 (ester)]", "values": [
      {"measurement": "Microorganism SS (growth inhibition)", "setting": "[1]", "value": "-"},
      {"measurement": "Microorganism SA (growth inhibition)", "setting": "[2]", "value": "+"},
      {"measurement": "Microorganism BS (growth inhibition)", "setting": "[3]", "value": "+"},
      {"measurement": "Microorganism EC (growth inhibition)", "setting": "[4]", "value": "+"},
      {"measurement": "Microorganism PA (growth inhibition)", "setting": "[5]", "value": "-"},
      {"measurement": "Microorganism MP (growth inhibition)", "setting": "[6]", "value": "-"},
      {"measurement": "Microorganism HV (growth inhibition)", "setting": "[7]", "value": "+"}
    ]},
    {"smiles": "Cc1cc(C)c2c(=O)c(C(=O)O)cn3c2c1OCC3C", "note": "(stereo not drawn) [Example 42 (acid)]", "values": [
      {"measurement": "Microorganism SS (growth inhibition)", "setting": "[1]", "value": "+"},
      {"measurement": "Microorganism SA (growth inhibition)", "setting": "[2]", "value": "+"},
      {"measurement": "Microorganism BS (growth inhibition)", "setting": "[3]", "value": "+"},
      {"measurement": "Microorganism EC (growth inhibition)", "setting": "[4]", "value": "+"},
      {"measurement": "Microorganism PA (growth inhibition)", "setting": "[5]", "value": "+"},
      {"measurement": "Microorganism MP (growth inhibition)", "setting": "[6]", "value": "+"},
      {"measurement": "Microorganism HV (growth inhibition)", "setting": "[7]", "value": "+"}
    ]},
    {"smiles": "CCOC(=O)c1cn2c3c(c(C)cc(C)c3c1=O)OCC2C", "note": "(stereo not drawn) [Example 42 (ester)]", "values": [
      {"measurement": "Microorganism SS (growth inhibition)", "setting": "[1]", "value": "-"},
      {"measurement": "Microorganism SA (growth inhibition)", "setting": "[2]", "value": "-"},
      {"measurement": "Microorganism BS (growth inhibition)", "setting": "[3]", "value": "+"},
      {"measurement": "Microorganism EC (growth inhibition)", "setting": "[4]", "value": "-"},
      {"measurement": "Microorganism PA (growth inhibition)", "setting": "[5]", "value": "-"},
      {"measurement": "Microorganism MP (growth inhibition)", "setting": "[6]", "value": "-"},
      {"measurement": "Microorganism HV (growth inhibition)", "setting": "[7]", "value": "-"}
    ]},
    {"smiles": "O=C(O)c1cn2c3c(cc(F)cc3c1=O)OCC2", "note": "[Example 43 (acid)]", "values": [
      {"measurement": "Microorganism SS (growth inhibition)", "setting": "[1]", "value": "+"},
      {"measurement": "Microorganism SA (growth inhibition)", "setting": "[2]", "value": "+"},
      {"measurement": "Microorganism BS (growth inhibition)", "setting": "[3]", "value": "+"},
      {"measurement": "Microorganism EC (growth inhibition)", "setting": "[4]", "value": "+"},
      {"measurement": "Microorganism PA (growth inhibition)", "setting": "[5]", "value": "-"},
      {"measurement": "Microorganism MP (growth inhibition)", "setting": "[6]", "value": "-"},
      {"measurement": "Microorganism HV (growth inhibition)", "setting": "[7]", "value": "+"}
    ]},
    {"smiles": "CC1COc2ccc([N+](=O)[O-])c3c(=O)c(C(=O)O)cn1c23", "note": "(stereo not drawn) [Example 44, 2,3-dihydro-3-methyl-8-nitro-7-oxo-7H-pyrido[1,2,3-de]-1,4-benzoxazine-6-carboxylic acid]", "values": [
      {"measurement": "Microorganism SS (growth inhibition)", "setting": "[1]", "value": "-"},
      {"measurement": "Microorganism SA (growth inhibition)", "setting": "[2]", "value": "+"},
      {"measurement": "Microorganism BS (growth inhibition)", "setting": "[3]", "value": "+"},
      {"measurement": "Microorganism EC (growth inhibition)", "setting": "[4]", "value": "+"},
      {"measurement": "Microorganism PA (growth inhibition)", "setting": "[5]", "value": "-"},
      {"measurement": "Microorganism MP (growth inhibition)", "setting": "[6]", "value": "-"},
      {"measurement": "Microorganism HV (growth inhibition)", "setting": "[7]", "value": "+"}
    ]}
  ]
}
